Laboratory results reported in patent US8686178B2, “Derivative of 18β-glycyrrhetinic acid apt to suppress cancer cells” (Kaohsiung Medical University, priority 2011, dated 2014).

Assays:
NTUB1 cells [1] = test: Trial (F): mitochondrial membrane potential (JC-1) by flow cytometry; type: cell-based, human; details: 10 μM, 30 minutes, JC-1, NTUB1
Description: In trial (F), mitochondrial membrane potential (MMP) in NTUB1 cells is measured according to a journal article published by Martin et al., at 2009 in PloS one, in which a dysfunction of the mitochondria caused by ROS induced MPP decrease is supposed.
Referring to TABLE 6, the NTUB1 cells at a density of 3×10^5 cells/ml are prepared and assigned into 5 groups, including F1 to F5, to incubate in 10 μM carbonyl cyanide 3-chlorophenylhydrazone (CCCP), and 10, 25 and 50 μM of 25 respectively, for 30 minutes, followed by adding 1 μM of 5,5′,6,6′-tetrachloro-1,1′,3,3′-tetraethylbenzimidaolylcarbocyanine iodide (JC-1) (Molecular Probes, Eugene, Oreg., USA) in each group. Then, the NTUB1 cells in each group are washed with PBS buffer for 3 times, collected in PBS/2% BSA, washed twice by centrifugating at 800 g, 5 minutes and resuspending in 0.3 mL PBS/2% BSA, and finally analyzed by a FACSCalibur flow cytometer (Becton Dickinson), with the FACSCalibur flow cytometer determining and calculating a ratio of JC-1 aggregates (red fluorescence) to JC-1 monomers (green fluorescence) based on levels of MMP in each group.

[2] = system: human bladder cancer cell line NTUB1; test: Trial (A): cytotoxic effect, IC50 by median-effect analysis; type: cell-based; details: NTUB1 cells; for IC50: mean ± SD; for cytotoxic effect against cancer cell: with reference to TABLE 2
Text: For the sake of proving therapeutic effects of the derivatives of 18β-glycyrrhetinic acid of the present invention, including 10, 11, 13-17 and 21-25, in treating of cancer, human bladder cancer cell line NTUB1, human prostate cancer cell line PC3 cataloged as CRL-1435 (reference to J. Formosan Med. Assoc. 1992; 91:608-13), and immortalized normal human urothelial cells SV-HUC1 cataloged as CRL-9520 are purchased from American Type Culture Collection (ATCC; Rockville, USA) and maintained in a culturing medium respectively till at a preferable density to carry out a serial of trials (comprising trial A to G) for evaluating cytotoxicities of the derivatives of 18β-glycyrrhetinic acid against cancer cells, and mechanisms thereof.
In the present invention, the NTUB1 and the PC3 is but not limit to be maintained in RPMI 1640 medium supplemented 10% fetal bovine serum (FBS), 100 unit/mL penicillin-G, 100 μg/mL streptomycin, and 2 mM L-glutamine, yet the SV-HUC1 is maintained in F12 medium supplemented with 10% fetal bovine serum (FBS), 100 unit/mL penicillin-G, 100 μg/mL streptomycin, and 2 mM L-glutamine, culturing at 37° C. in a humidified atmosphere containing 5% CO2 till at a density of 70% per well, followed by repeatedly suspending cells in each well with an ethylene diamine tetra-acetic acid buffer (EDTA buffer; Merck) and counting cell numbers.
In the present invention, the IC50 values of each group are presented as mean±standard deviation (SD).

NTUB1 cells [3] = test: Trial (C): synergy with cisplatin, MTT assay; type: cell-based, human; details: NTUB1, 72 hours; for cytotoxic effect applied individually (FIGS. 7, 8): single agent; for synergy with cisplatin (FIGS. 7, 8): 1-50 μM compound with 5/10 μM cisplatin
Description: Oncol: Semin. Orig. Invest. by maintaining the NTUB1 cells in various condition of medium (with reference to TABLE 3) at 37° C. for 72 hours, and determining cytotoxicities of each medium via MTT assay. In the trial (C), the viability rates of NTUB1 cells […] are also determined by the absorbance spectrometry at 540 nm with a MRX (DYNEXCO) microplate according to trial (B).

NTUB1 cells [4] = test: Trial (E): cell cycle progression by flow cytometry (propidium iodide); type: cell-based, human; parameters: Sub-G1 / G1: unit not given here; details: 50 μM, 24 hours, NTUB1
Description: In order to determine a relationship between the derivatives of 18β-glycyrrhetinic acid of the present invention and cell cycle arrest, trial (E) is carried out by analyzing cell cycle progression by flow cytometry. […] After that, cell cycle progression of each group is determined respectively by incubating with 50 μg/mL propidium iodide (Sigma, Co) and 50 μg/mL RNase A (Sigma, Co) in PBS at room temperature for 30 min, and analyzing by FACScan flow cytometer and Cell Quest sofeware.

Row | Structure (SMILES) | IC50 [2] [µM] | also measured
1 | N#CC(C#N)=NNc1cccc(Cl)c1 [CCCP, carbonyl cyanide 3-chlorophenylhydrazone, reference compound] |  | R1 (%) (NTUB1 cells [1]): 52.06%
2 | CC1(C)[C@@H](O)CC[C@]2(C)[C@H]3C(=O)C=C4[C@@H]5C[C@@](C)(C(=O)O)CC[C@]5(C)CC[C@@]4(C)[C@]3(C)CC[C@@H]12 [Compound 1, 18β-glycyrrhetinic acid] | 27.3 ± 5.17 | 
3 | CC1(C(=O)O)CCC2(C)CCC3(C)C(=CC(=O)C4C5(C)CCC(=O)C(C)(C)C5CCC43C)C2C1 (stereo not drawn) [Compound 2] | 18.6 ± 1.64 | 
4 | COC(=O)C1(C)CCC2(C)CCC3(C)C(=CC(=O)C4C5(C)CCC(=O)C(C)(C)C5CCC43C)C2C1 (stereo not drawn) [Compound 3] | 56.5 ± 14.3 | 
5 | CC1(C(=O)OCc2ccccc2)CCC2(C)CCC3(C)C(=CC(=O)C4C5(C)CCC(=O)C(C)(C)C5CCC43C)C2C1 (stereo not drawn) [Compound 4] | 20.2 ± 5.1 | 
6 | CC1(C(=O)O)CCC2(C)CCC3(C)C(=CC(=O)C4C5(C)CCC(=O)OC(C)(C)C5CCC43C)C2C1 (stereo not drawn) [Compound 5] | 73.5 ± 35.1 | 
7 | COC(=O)C1(C)CCC2(C)CCC3(C)C(=CC(=O)C4C5(C)CCC(=O)OC(C)(C)C5CCC43C)C2C1 (stereo not drawn) [Compound 6] | 24.3 ± 3.98 | 
8 | CC1(C(=O)OCc2ccccc2)CCC2(C)CCC3(C)C(=CC(=O)C4C5(C)CCC(=O)OC(C)(C)C5CCC43C)C2C1 (stereo not drawn) [Compound 7] | 57.6 ± 8.8 | 
9 | C=C(C)[C@@H]1CC[C@]2(C)[C@H](C(=O)C=C3[C@@H]4C[C@@](C)(C(=O)OC)CC[C@]4(C)CC[C@]32C)[C@@]1(C)CCC(=O)O [Compound 8] | 20.7 ± 4.97 | 
10 | C=C(C)[C@@H]1CC[C@]2(C)[C@H](C(=O)C=C3[C@@H]4C[C@@](C)(C(=O)OCc5ccccc5)CC[C@]4(C)CC[C@]32C)[C@@]1(C)CCC(=O)O [Compound 9] | 2.34 ± 0.28 | cytotoxic effect against cancer cell [2]: significantly suppress the growth of cancer cells with a lower concentrate
11 | C=C(C)C1CCC2(C)C(C(=O)C=C3C4CC(C)(C(=O)OC)CCC4(C)CCC32C)C1(C)CCC(=O)OC(C)C (stereo not drawn) [Compound 10, 3,4-seco-11-oxo-18β-olean-4(23),12-dien-3,30-dioic acid 3-isopropyl 30-methyl, ester] | 25.3 ± 2.28 | 
12 | C=C(C)[C@@H]1CC[C@]2(C)[C@H](C(=O)C=C3[C@@H]4C[C@@](C)(C(=O)OC)CC[C@]4(C)CC[C@]32C)[C@@]1(C)CCC(=O)NC(C)C [Compound 11, 3-isopropyl carbamoyl-11-oxo-18β-3,4-seco-olean-4(23),12-dien 30-methyl ester] | 31.4 ± 0.55 | 
13 | C=C(C)[C@@H]1CC[C@]2(C)[C@H](C(=O)C=C3[C@@H]4C[C@@](C)(C(=O)OCc5ccccc5)CC[C@]4(C)CC[C@]32C)[C@@]1(C)CCC(=O)OC [Compound 12, 3,4-seco-11-oxo-18β-olean-4(23), 12-dien-3,30-dioic acid 3-methyl-30-benzyl ester] | 9.41 ± 2.72 | cytotoxic effect against cancer cell [2]: significantly suppress the growth of cancer cells with a lower concentrate; cytotoxic effect applied individually (FIGS. 7, 8) (NTUB1 cells [3]): cytotoxic effects against to cancer cells; synergy with cisplatin (FIGS. 7, 8) (NTUB1 cells [3]): dramatic synergy
14 | C=C(C)C1CCC2(C)C(C(=O)C=C3C4CC(C)(C(=O)OCc5ccccc5)CCC4(C)CCC32C)C1(C)CCC(=O)OCC (stereo not drawn) [Compound 13, 3,4-seco-11-oxo-18β-olean-4(23),12-dien-3,30-dioic acid 3-ethyl,30-benzyl ester] | 27.8 ± 6.48 | 
15 | C=C(C)C1CCC2(C)C(C(=O)C=C3C4CC(C)(C(=O)OCc5ccccc5)CCC4(C)CCC32C)C1(C)CCC(=O)OC(C)C (stereo not drawn) [Compound 14, 3,4-seco-11-oxo-18β-olean-4(23),12-dien-3,30. dioic acid 3-isopropyl-30-benzyl ester] | 18.2 ± 1.58 | 
16 | C=C(C)[C@@H]1CC[C@]2(C)[C@H](C(=O)C=C3[C@@H]4C[C@@](C)(C(=O)OCc5ccccc5)CC[C@]4(C)CC[C@]32C)[C@@]1(C)CCC(=O)NCC [Compound 15, 3-ethyl carbamoyl-11-oxo-18β-3,4-seco-olean-4(23),12-dien-30-benzyl ester] | 42.7 ± 11.2 | 
17 | C=C(C)[C@@H]1CC[C@]2(C)[C@H](C(=O)C=C3[C@@H]4C[C@@](C)(C(=O)OCc5ccccc5)CC[C@]4(C)CC[C@]32C)[C@@]1(C)CCC(=O)NCCC [Compound 16, 3-propylcarbamoyl-11-oxo-18β-3,4-seco-olean-4(23),12-dien 30-benzyl ester] | 49.4 ± 11.5 | 
18 | C=C(C)[C@@H]1CC[C@]2(C)[C@H](C(=O)C=C3[C@@H]4C[C@@](C)(C(=O)OCc5ccccc5)CC[C@]4(C)CC[C@]32C)[C@@]1(C)CCC(=O)NC(C)C [Compound 17, 3-isopropylcarbamoyl-11-oxo-18β-3,4-seco-olean-4(23), 12-dien 30-benzyl ester] | 30.1 ± 2.41 | 
19 | CC(C)NC(=O)C1(C)CCC2(C)CCC3(C)C(=CC(=O)C4C5(C)CCC(=O)OC(C)(C)C5CCC43C)C2C1 (stereo not drawn) [Compound 18] | 25.7 ± 1.81 | 
20 | C=C(C)[C@@H]1CC[C@]2(C)[C@H](C(=O)C=C3[C@@H]4C[C@@](C)(C(=O)NC(C)C)CC[C@]4(C)CC[C@]32C)[C@@]1(C)CCC(=O)O [Compound 19] | 17.5 ± 2.11 | 
21 | C=C(C)[C@@H]1CC[C@]2(C)[C@H](C(=O)C=C3[C@@H]4C[C@@](C)(C(=O)NC(C)C)CC[C@]4(C)CC[C@]32C)[C@@]1(C)CCC(=O)OC [Compound 20, 30-Isopropylcarbamoyl-11-oxo-18β-3,4-seco-olean-4(23),12-diene 3-methyl ester] | 13.1 ± 5.27 | cytotoxic effect applied individually (FIGS. 7, 8) (NTUB1 cells [3]): cytotoxic effects against to cancer cells; synergy with cisplatin (FIGS. 7, 8) (NTUB1 cells [3]): dramatic synergy
22 | C=C(C)[C@@H]1CC[C@]2(C)[C@H](C(=O)C=C3[C@@H]4C[C@@](C)(C(=O)NC(C)C)CC[C@]4(C)CC[C@]32C)[C@@]1(C)CCC(=O)OC(C)C [Compound 22, 30-isopropyl carbamoyl-11-oxo-18β-3,4-seco-olean-4(23),12-dien 3-isopropyl ester] | 29.2 ± 26.6 | 
23 | C=C(C)[C@@H]1CC[C@]2(C)[C@H](C(=O)C=C3[C@@H]4C[C@@](C)(C(=O)NC(C)C)CC[C@]4(C)CC[C@]32C)[C@@]1(C)CCC(=O)NCCC [Compound 24, 30-isopropyl carbamoyl-11-oxo-18β-3,4-seco-olean-4(23), 12-dien 3-propyl carbamate] | > 50 | 
24 | CC1(C(=O)Nc2ccccc2)CCC2(C)CCC3(C)C(=CC(=O)C4C5(C)CCC(=O)OC(C)(C)C5CCC43C)C2C1 (stereo not drawn) [Compound 26] | 16 ± 5.3 | 
25 | C=C(C)[C@@H]1CC[C@]2(C)[C@H](C(=O)C=C3[C@@H]4C[C@@](C)(C(=O)Nc5ccccc5)CC[C@]4(C)CC[C@]32C)[C@@]1(C)CCC(=O)O [Compound 27] | 3.31 ± 0.61 | cytotoxic effect against cancer cell [2]: significantly suppress the growth of cancer cells with a lower concentrate
26 | OO [Compound H2O2, H2O2, reference compound] |  | G1 (NTUB1 cells [4]): 27.15; G2/M (NTUB1 cells [4]): 20.18; S (NTUB1 cells [4]): 23.84; Sub-G1 (NTUB1 cells [4]): 9.48
